Test [1] concerns HCMV strain Merlin-pAL1502. Nature of the test: Cell-associated focal spread of Merlin-pAL1502 in HFFs. The format is cell-based, Human cytomegalovirus.
The test system of test [2] is recent cell-associated clinical HCMV isolates. In words: Cell-associated focal spread of recent clinical HCMV isolates in HFF co-culture. Type of test: cell-based, Human cytomegalovirus. The following applies: 60 µmol/L, added 1 d p.i., fixed 7 d p.i.
Test [3] deals with TB40-BAC4. In words: Inhibition of cell-free HCMV infection of HFFs (TB40-BAC4). The format is cell-based, Human cytomegalovirus.
In test [4] the test system is HSV-1 R10.2. Nature of the test: Inhibition of cell-free HSV-1 infection of HFFs. Type of test: cell-based, herpes simplex virus 1. Conditions: 1 h preincubation, MOI 1, fixed 6 h p.i.
Test [5] has as its system HSV-2 R6. Nature of the test: Inhibition of cell-free HSV-2 infection of HFFs. Type of test: cell-based, herpes simplex virus 2. The following applies: 1 h preincubation, MOI 1, fixed 6 h p.i.
Test [6] deals with Merlin-pAL1502-UL32EGFP-UL100mCherry. In words: Single particle analysis of virion transfer with dual fluorescent Merlin. Type of test: cell-based, Human cytomegalovirus. The following applies: 125 µmol/L, added 1 d p.i.
The subject of test [7] is HCMV strain Merlin-pAL1502. Nature of the test: Reversibility of inhibition of cell-associated spread after peptide removal. The format is cell-based, Human cytomegalovirus.

Peptide text beside a SMILES is read from it.

Take `CC[C@H](C)[C@H](NC(=O)[C@H](Cc1ccc(O)cc1)NC(=O)[C@@H](NC(=O)[C@H](Cc1c[nH]cn1)NC(=O)[C@H](CCCNC(=N)N)NC(=O)CN)[C@@H](C)CC)C(=O)N[C@@H](Cc1ccc(O)cc1)C(=O)N[C@H](C(=O)N1CCC[C@H]1C(=O)N[C@@H](CC(=O)O)C(=O)N1CCC[C@H]1C(=O)N[C@@H](CC(=O)O)C(=O)N[C@H](C(=O)N[C@@H](C)C(=O)N[C@@H](Cc1ccccc1)C(=O)N[C@H](C(=O)N1CCC[C@H]1C(=O)N[C@@H](CC(C)C)C(=O)NCC(=O)N[C@@H](CCSC)C(=O)N[C@H](C(=O)N[C@@H](CC(=O)O)C(=O)N[C@@H](Cc1ccc(O)cc1)C(=O)N[C@@H](CC(C)C)C(=O)N[C@H](C(=O)N[C@H](C(=O)N[C@H](C(=O)N[C@@H](CCC(=O)O)C(=O)N[C@@H](CC(=O)O)C(=O)N[C@@H](CC(=O)O)C(=O)O)C(C)C)[C@@H](C)CC)C(C)C)[C@@H](C)O)C(C)C)C(C)C)C(C)C` [GD30] (H-GRHIYIYVPDPDVAFVPLGMTDYLVIVEDD-OH; N-terminus and C-terminus assumed): the “Reduction of focal growth compared with GT40” value in test [1] (60 µmol/L, added 1 d p.i., fixed 7 d p.i.) is on record as “to a similar extent but not more than GT40”; in test [2], “to a similar extent but not more than GT40”. Moreover, the “Inhibition of cell-associated spread” value in test [1] (125 µmol/L, applied 42 h p.i., MOI 0.005) is recorded as “almost completely inhibits”. Moreover, in test [3] (2 h preincubation with virus, MOI 1, fixed next day), the “Antiviral effect against cell-free virus” value is given as “effective against cell-free virus”. For the same molecule, the “Hill slope of the dose-response curve” value in test [3] (cell-free virus, 2 h preincubation, MOI 1) was −1.67. Besides, the “Extent of inhibition of cell-free virus” value in test [4] and in test [5] was “completely” in each case. The “Reduction of the total number of particles transferred” value in test [6] (MOI 0.05, versus DMSO control, 10 frames) is listed as 78%. For the same molecule, the “Percentage of naked capsids” value in test [6] (MOI 0.05, untreated control 86%) is on record as 7%. The “Focus size under permanent treatment” value in test [7] (125 µmol/L from 42 h p.i. until fixation at day 8) is “almost exclusively single infected cells”. Besides, the “Reversibility of the inhibitory effect after peptide removal” value in test [7] (125 µmol/L from 42 h to 5 d p.i., then 3 d without peptide) is “completely reversible”. Further, the “Mean focus size after intermittent treatment” value in test [7] (125 µmol/L from 42 h to 5 d p.i., withdrawn, fixed 8 d p.i., untreated control up to 50) is reported as “around 15 infected cells per focus”.
